Results as given in patent US6323203A, “Composition and method for treating diabetes” (Beyer; Camille F., priority 2000, dated 2001).

Legend:
[1] = Serum concentration of PZG or PZA after single oral dose in the crossover study; type: in vivo; conditions: human, 900 mg, 8 normal subjects
Experimental: (§1) Eight male nonsmoking subjects aged 24-32 participated. They were normal by history, physical exam and routine laboratory analysis of blood and urine.
(§2) This was a single-blind, three-phase crossover study beginning after a 10-hour fast at 8 a.m., designated time 0 (control), when the first venipuncture occurred. In phase I, three capsules of lactose were given orally, followed by venipunctures 2 and 4 h later. In phase II, 1 week later, after a control blood specimen drawn at 8 a.m., PZG (900 mg) was given orally and blood specimens taken 2 and 4 h thereafter. In phase III, 3 weeks later, after a control blood specimen drawn at 8 a.m., PZA (300 mg) was given orally and blood specimens taken 2 and 4 h later.
(§3) Each phase consisted of taking three capsules, each containing 300 mg. In phase I, all three capsules were of lactose; in phase II, all three were PZG; and in phase III, two capsules were lactose and one PZA. All capsules appeared indistinguishable and were given to each subject who swallowed them with water in the presence of an investigator.
(§4) Once obtained, blood specimens were immediately spun. Refrigerated serum or plasma was analyzed within 24 h for glucose, insulin, electrolytes, blood urea nitrogen, creatinine, liver function tests, triglycerides, total cholesterol, high-density lipoprotein (HDL) cholesterol, low-density lipoprotein (LDL) cholesterol, very-low-density lipoprotein (VLDL) cholesterol, free fatty acids, and fibrinogen.

[2] = test system: cutaneous vasomotor reaction of blush area; experiment: Cutaneous vasomotor response (and tolerability) after a single oral dose in 8 male volunteers; type: in vivo, human; conditions: single oral dose, 900 mg PZG
Experimental: as §1, §2
Comparisons of mean serum or plasma concentrations ±SD during placebo, PZG and PZA phases are presented in Table 1 for glucose, insulin, C-peptide, free fatty acids and norepinephrine. Comparisons of mean serum or plasma concentrations ±SD during these three phases are presented in Table 2 for triglycerides, VLDL, LDL, HDL, total cholesterol, fibrinogen and serum PZG and PZA concentrations. Note the close agreement of serum PZG and PZA concentrations at 2 h and also at 4 h after their administration. Table 3 compares mean serum or plasma concentrations ±SD of renin, angiotensin I, adlosterone, potassium, urea and uric acid during the three phases of the study. […] In an earlier pilot experiment to determine serum PZA concentrations following different PZA doses, a first subject ([…]) after a single oral dose of 300 mg PZA developed unexpectedly a typical cutaneous vasomotor reaction of their blush area which included flushed, warm skin of face, neck and shoulders with a mild rash for about 90 min. […] They described the reaction variously as warm redness or flushed head and neck, rash and itching (Table 4). These reactions, which were graded from 6 (most severe) to 0 (not observed), lasted from 30 min in 3 subjects to 4 h in 1 subject. […] No significant correlation occurred between score of reaction (effect+duration) and PZA peak blood concentration among the subjects (r=0.281) (Table 4).
^1 Score = warm + redness (flush) + rash + itching + duration. Duration
as 0.5 h, 1, 2, 4 h (reaction and duration as noted).

[3] = Single-blind, three-phase crossover study of single oral doses: blood analyses of metabolic, hormonal and electrolyte parameters in 8 normal male subjects; type: in vivo, human; conditions: for Free fatty acids, mean / Angiotensin I, mean / Renin, mean / C-peptide, mean / Potassium, mean / Uric acid, mean / Aldosterone, mean / Insulin, mean / Urea, mean / VLDL Cholesterol, mean / Norepinephrine, mean / HDL Cholesterol, mean / Glucose, mean / Triglycerides, mean / LDL Cholesterol, mean / Total cholesterol, mean / Fibrinogen, mean: 8 normal subjects; for Free fatty acids, mean: 0 h: PZG 0.47, PZA 0.51; for Angiotensin I, mean: 0 h: PZG 0.84, PZA 0.66; for Renin, mean: 0 h: PZG 1.0, PZA 1.5; for C-peptide, mean: 0 h: PZG 1.1, PZA 1.2; for Potassium, mean: 0 h: PZG 4.2, PZA 4.0; for Uric acid, mean: 0 h: PZG 6.0, PZA 5.6; for Aldosterone, mean: 0 h: PZG 8.6, PZA 13.6; for Insulin, mean: 0 h: PZG 8.8, PZA 5.4; for Urea, mean: 0 h: PZG 17, PZA 17; for VLDL Cholesterol, mean: 0 h: PZG 20, PZA 17; for Norepinephrine, mean: 0 h: PZG 37, PZA 75; for HDL Cholesterol, mean: 0 h: PZG 41, PZA 46; for Glucose, mean: 0 h: PZG 87, PZA 84; for Triglycerides, mean: 0 h: PZG 101, PZA 86; for LDL Cholesterol, mean: 0 h: PZG 107, PZA 104; for Total cholesterol, mean: 0 h: PZG 168, PZA 167; for Fibrinogen, mean: 0 h: PZG 266, PZA 293
Experimental: A three-phase study, where single oral doses of placebo, followed in one week by 900 mg of pyrazinoylguanidine (PZG), followed in three weeks by 300 mg of pyrazinoic acid (PZA), involving normal male subjects, was carried out to compare and contrast metabolic effects of single doses of PZG and PZA. A purpose of the study was to determine whether the metalbolic effects observed after 3 and also 21 days of PZG administration in patients with renal disease or with diabetes also occurred after a single oral dose. […]
as §1, §2, §3, §4
Repeated measures of analysis of variance were used to compare each subject's placebo, PZG and PZA phase. Two-tailed Student t-tests were performed between groups. All results are reported as means ±SD. Statistical significance was considered when p<0.05. The results are illustrated in Tables 1-4.

[4] = 4 h after single oral dose (PZG 900 mg, PZA 300 mg)
[5] = 2 h after single oral dose (PZG 900 mg, PZA 300 mg)

NC(N)=NC(=O)c1cnccn1 [PZG, pyrazinoylguanidine]
concentration at 2 h ([1]; 2 h after single oral dose (PZG 900 mg, PZA 300 mg), read-out: Serum concentration of PZG or PZA, mean): 5100 ng/mL
concentration at 4 h [1, 4]: 3000 ng/mL
adverse reactions [2]: no adverse reaction
tolerability [2]: well tolerated
Free fatty acids, mean [3, 5]: 0.20 meq/l
Angiotensin I, mean [3, 5]: 0.86 ng/ml per h
Renin, mean [3, 5]: 1.2 ng/ml per h
C-peptide, mean [3, 5]: 0.9 ng/mL
Potassium, mean [3, 5]: 4.5 meg/l
Uric acid, mean [3, 5]: 6.0 mg/dL
Aldosterone, mean [3, 5]: 10.0 ng/dL
Insulin, mean [3, 5]: 6.2 μlU/ml
Urea, mean [3, 5]: 17 mg/dL
VLDL Cholesterol, mean [3, 5]: 18 mg/dL
Norepinephrine, mean [3, 5]: 53 pg/mL
HDL Cholesterol, mean [3, 5]: 42 mg/dL
Glucose, mean [3, 5]: 84 mg/dL
Triglycerides, mean [3, 5]: 91 mg/dL
LDL Cholesterol, mean [3, 5]: 107 mg/dL
Total cholesterol, mean [3, 5]: 167 mg/dL
Fibrinogen, mean [3, 5]: 273 mg/dL
Free fatty acids, mean [3, 4]: 0.19 meq/l
Angiotensin I, mean [3, 4]: 1.0 ng/ml per h
Renin, mean [3, 4]: 1.8 ng/ml per h
C-peptide, mean [3, 4]: 0.6 ng/mL
Potassium, mean [3, 4]: 4.3 meg/l
Uric acid, mean [3, 4]: 6.2 mg/dL
Aldosterone, mean [3, 4]: 9.5 ng/dL
Insulin, mean [3, 4]: 3.4 μlU/ml
Urea, mean [3, 4]: 16 mg/dL
VLDL Cholesterol, mean [3, 4]: 16 mg/dL
Norepinephrine, mean [3, 4]: 113 pg/mL
HDL Cholesterol, mean [3, 4]: 42 mg/dL
Glucose, mean [3, 4]: 80 mg/dL
Triglycerides, mean [3, 4]: 79 mg/dL
LDL Cholesterol, mean [3, 4]: 113 mg/dL
Total cholesterol, mean [3, 4]: 171 mg/dL
Fibrinogen, mean [3, 4]: 273 mg/dL
effect on potassium blood concentrations ([3]; single oral dose, within 4 h): not changed
